The source of these data is ChEMBL document CHEMBL6120956, “Discovery of a Potent, Orally Active, and Long-Lasting P2X7 Receptor Antagonist as a Preclinical Candidate for Delaying the Progression of Chronic Kidney Disease” (J Med Chem, 2024).

As a reminder, the half-life is how long it takes for the measured level to halve. The Cmax is the peak of the concentration-time curve. By Tmax is commonly meant the time from dosing to the highest level. The AUC(0-t) is exposure summed from dosing to a finite time, without extrapolation to infinity. Read a low AUC(0-t) as low exposure. The term IC50 denotes the concentration that inhibits the measured activity by half. By CL/F is commonly meant clearance divided by bioavailability, as obtained after extravascular dosing.

A short description of data set [1]: Half life in male BALB/c mouse at 10 mg/kg, po single administration measured upto 72 hrs by LC-MS/MS analysis. The class given is ADME, organism-based. The conditions noted are these: in vivo.
In a further data set the target is CYP3A4 (Homo sapiens, UniProt P08684). In words: Inhibition of CYP3A4 in human liver microsomes assessed as compound remaining at 1 uM measured after 2 hrs incubation by LC-MS/MS analysis. Type of data set: ADME, Microsome. Particulars: read-out: Activity. (Microsomes from liver hold many membrane-bound enzymes, among them those of drug oxidation.)
The nature of data set [2]: Metabolic stability in mouse liver microsomes assessed as clearance. Type of data set: ADME, Microsome. The conditions noted are these: read-out: CLH.
The target in the next data set is CYP2C9 (Homo sapiens, UniProt P11712). In words: Inhibition of CYP2C9 in human liver microsomes assessed as compound remaining at 1 uM measured after 2 hrs incubation by LC-MS/MS analysis. Type of data set: ADME, Microsome. The conditions noted are these: read-out: Activity.
A further data set has as its target CYP2D6 (Homo sapiens, UniProt P10635). In words: Inhibition of CYP2D6 in human liver microsomes assessed as compound remaining at 1 uM measured after 2 hrs incubation by LC-MS/MS analysis. Type of data set: ADME, Microsome. The conditions noted are these: read-out: Activity.
Data set [3] is described as follows: Toxicity in C57BL/6 mouse assessed as change in body weight at 2 g/Kg measured for 14 days. Particulars: in vivo, 2000 mg/kg, 336 h, time 14 day.
Data set [4] can be described thus: Metabolic stability in mouse liver microsomes assessed as half life. Type of data set: ADME, Microsome.
Data set [5] in a line: Stability in Balb/c mouse plasma measured upto 8 hrs. The class given is ADME, cell-free.
Data set [6] can be described thus: Cmax in male BALB/c mouse at 10 mg/kg, po single administration measured upto 72 hrs by LC-MS/MS analysis. Type of data set: ADME, organism-based. Particulars: in vivo.
A short description of data set [7]: Plasma protein binding in plasma (unknown origin) at 10 uM measured after 6 hrs incubation by LC-MS/MS analysis. Type of data set: ADME, cell-free. Particulars: read-out: PPB (converted).
Data set [8] in a line: Toxicity in female C57BL/6 mouse assessed as decrease in body weight at 2 g/Kg measured for 2 to 6 days. Particulars: in vivo, 2000 mg/kg, time 2-6 day.
Data set [9] is described as follows: Tmax in male BALB/c mouse at 10 mg/kg, po single administration measured upto 72 hrs by LC-MS/MS analysis. The conditions noted are these: in vivo. Type of data set: ADME, organism-based.
A short description of data set [10]: AUC (0 to t) in male BALB/c mouse at 10 mg/kg, po single administration measured upto 72 hrs by LC-MS/MS analysis. Type of data set: ADME, organism-based. The conditions noted are these: in vivo.
The target of another data set is T1, P2X purinoceptor 7 (Mus musculus, UniProt Q9Z1M0).
T1 sequence (Q9Z1M0 whole entry): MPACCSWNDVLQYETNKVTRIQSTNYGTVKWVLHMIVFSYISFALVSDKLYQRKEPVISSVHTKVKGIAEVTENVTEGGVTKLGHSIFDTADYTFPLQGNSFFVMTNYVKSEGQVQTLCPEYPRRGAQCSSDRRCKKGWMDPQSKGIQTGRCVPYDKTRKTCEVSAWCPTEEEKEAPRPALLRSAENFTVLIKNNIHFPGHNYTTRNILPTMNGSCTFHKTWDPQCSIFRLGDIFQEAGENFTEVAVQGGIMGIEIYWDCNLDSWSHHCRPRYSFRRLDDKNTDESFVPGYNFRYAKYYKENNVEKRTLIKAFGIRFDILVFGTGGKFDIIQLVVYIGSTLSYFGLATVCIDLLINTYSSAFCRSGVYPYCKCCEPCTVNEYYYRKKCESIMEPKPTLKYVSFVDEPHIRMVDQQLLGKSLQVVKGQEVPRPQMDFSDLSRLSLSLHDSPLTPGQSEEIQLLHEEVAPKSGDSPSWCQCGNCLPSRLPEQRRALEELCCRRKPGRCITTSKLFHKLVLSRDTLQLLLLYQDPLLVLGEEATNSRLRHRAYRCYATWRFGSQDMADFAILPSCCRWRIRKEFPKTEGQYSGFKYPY
The data set can be described thus: Antagonist activity against mouse P2X7 receptor expressed in ATP-stimulated HEK293 cells assessed as influx of PI by fluorescence dye uptake assay relative to control. Type of data set: cell-based.

The target in a further data set is CYP2C19 (Homo sapiens, UniProt P33261). The data set can be described thus: Inhibition of CYP2C19 in human liver microsomes assessed as compound remaining at 1 uM measured after 2 hrs incubation by LC-MS/MS analysis. Type of data set: ADME, Microsome. Particulars: read-out: Activity.
A short description of data set [11]: Metabolic stability in human liver microsomes assessed as half life. The class given is ADME, Microsome.
The target of the next data set is CYP2E1 (Homo sapiens, UniProt P05181). The data set can be described thus: Inhibition of CYP2E1 in human liver microsomes assessed as compound remaining at 1 uM measured after 2 hrs incubation by LC-MS/MS analysis. Type of data set: ADME, Microsome. The conditions noted are these: read-out: Activity.
The next data set addresses T2, CYP1A2 (Homo sapiens, UniProt P05177).
T2 sequence (P05177 whole entry): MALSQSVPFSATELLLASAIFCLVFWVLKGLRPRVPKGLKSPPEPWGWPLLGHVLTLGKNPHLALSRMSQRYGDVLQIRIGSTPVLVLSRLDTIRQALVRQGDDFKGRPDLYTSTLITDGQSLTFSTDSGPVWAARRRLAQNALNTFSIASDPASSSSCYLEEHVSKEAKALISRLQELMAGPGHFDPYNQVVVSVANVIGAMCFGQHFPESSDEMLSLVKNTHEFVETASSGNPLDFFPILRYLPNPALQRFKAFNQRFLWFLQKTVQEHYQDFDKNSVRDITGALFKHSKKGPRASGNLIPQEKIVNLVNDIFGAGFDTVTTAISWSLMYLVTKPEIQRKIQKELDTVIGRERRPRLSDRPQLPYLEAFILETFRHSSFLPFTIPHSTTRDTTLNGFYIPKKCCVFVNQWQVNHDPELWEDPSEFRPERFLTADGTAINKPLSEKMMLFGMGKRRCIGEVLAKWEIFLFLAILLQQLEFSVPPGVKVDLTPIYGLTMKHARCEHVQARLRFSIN
In words: Inhibition of CYP1A2 in human liver microsomes assessed as compound remaining at 1 uM measured after 2 hrs incubation by LC-MS/MS analysis. Type of data set: ADME, Microsome. The conditions noted are these: read-out: Activity.

A short description of data set [12]: Metabolic stability in human liver microsomes assessed as clearance. Type of data set: ADME, Microsome. Particulars: read-out: CLH.
The target of data set [13] is Voltage-gated inwardly rectifying potassium channel KCNH2 (Homo sapiens, UniProt Q12809). In words: Inhibition of hERG. Type of data set: toxicity.
A further data set concerns the target T3, CYP2A6 (Homo sapiens, UniProt P11509).
T3 sequence (P11509 whole entry): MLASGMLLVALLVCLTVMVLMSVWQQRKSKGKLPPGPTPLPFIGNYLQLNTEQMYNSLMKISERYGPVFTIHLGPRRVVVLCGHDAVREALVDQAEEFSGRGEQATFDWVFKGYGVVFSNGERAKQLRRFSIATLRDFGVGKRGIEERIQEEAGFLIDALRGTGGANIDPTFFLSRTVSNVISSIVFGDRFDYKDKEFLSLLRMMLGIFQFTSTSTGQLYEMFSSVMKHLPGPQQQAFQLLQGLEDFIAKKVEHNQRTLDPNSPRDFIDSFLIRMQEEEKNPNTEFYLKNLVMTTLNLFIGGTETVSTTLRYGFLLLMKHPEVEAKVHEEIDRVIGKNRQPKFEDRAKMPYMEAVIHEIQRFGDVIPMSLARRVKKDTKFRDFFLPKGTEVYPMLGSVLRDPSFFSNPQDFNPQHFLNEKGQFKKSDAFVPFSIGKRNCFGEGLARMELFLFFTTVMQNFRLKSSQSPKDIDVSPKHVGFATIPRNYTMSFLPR
In words: Inhibition of CYP2A6 in human liver microsomes assessed as compound remaining at 1 uM measured after 2 hrs incubation by LC-MS/MS analysis. Type of data set: ADME, Microsome. The conditions noted are these: read-out: Activity.

A short description of data set [14]: Clearance in male BALB/c mouse at 10 mg/kg, po single administration measured upto 72 hrs by LC-MS/MS analysis. Type of data set: ADME, organism-based. The conditions noted are these: in vivo.
Data set [15] relates to HEK293. In words: Cytotoxicity against HEK293 cells expressing human P2X7 receptor assessed as cell viability upto 2 uM measured after 24 hrs incubation by CCK8 assay. Particulars: hek293, 24 h. The class given is toxicity, cell-based. In general terms: Formazan colour is commonly taken as a measure of viable cells.
The test system of data set [16] is HEK293. The data set can be described thus: Cytotoxicity against HEK293 cells expressing mouse P2X7 receptor assessed as cell viability upto 2 uM measured after 24 hrs incubation by CCK8 assay. Type of data set: toxicity, cell-based. The conditions noted are these: human, hek293, 24 h.

CYP2C9, sequence (P11712 whole entry): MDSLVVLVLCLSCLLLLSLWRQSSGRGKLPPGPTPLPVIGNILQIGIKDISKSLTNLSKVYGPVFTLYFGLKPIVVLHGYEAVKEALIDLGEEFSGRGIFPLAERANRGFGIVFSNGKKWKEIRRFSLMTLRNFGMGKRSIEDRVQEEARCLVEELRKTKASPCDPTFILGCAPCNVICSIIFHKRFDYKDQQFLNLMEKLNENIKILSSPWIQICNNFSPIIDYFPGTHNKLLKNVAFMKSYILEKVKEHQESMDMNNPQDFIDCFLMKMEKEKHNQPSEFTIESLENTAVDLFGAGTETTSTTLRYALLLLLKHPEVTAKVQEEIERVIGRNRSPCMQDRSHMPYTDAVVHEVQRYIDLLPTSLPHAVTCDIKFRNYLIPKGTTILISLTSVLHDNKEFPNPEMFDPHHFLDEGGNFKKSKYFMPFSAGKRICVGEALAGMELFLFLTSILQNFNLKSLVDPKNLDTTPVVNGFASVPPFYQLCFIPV
CYP2C19, sequence (P33261 whole entry): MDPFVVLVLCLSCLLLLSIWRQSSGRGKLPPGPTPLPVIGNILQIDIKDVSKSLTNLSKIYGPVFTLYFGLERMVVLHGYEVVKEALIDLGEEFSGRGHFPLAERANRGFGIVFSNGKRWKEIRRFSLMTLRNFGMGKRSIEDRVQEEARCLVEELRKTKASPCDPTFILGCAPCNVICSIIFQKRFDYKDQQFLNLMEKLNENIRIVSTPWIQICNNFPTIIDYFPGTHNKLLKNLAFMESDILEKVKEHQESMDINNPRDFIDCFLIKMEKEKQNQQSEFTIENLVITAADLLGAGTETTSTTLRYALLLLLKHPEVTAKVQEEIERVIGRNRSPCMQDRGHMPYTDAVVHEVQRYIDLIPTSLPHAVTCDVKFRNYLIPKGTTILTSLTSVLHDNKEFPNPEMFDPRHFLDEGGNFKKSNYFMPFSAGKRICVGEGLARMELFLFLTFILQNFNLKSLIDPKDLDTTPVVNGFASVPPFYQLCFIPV
CYP3A4, sequence (P08684 whole entry): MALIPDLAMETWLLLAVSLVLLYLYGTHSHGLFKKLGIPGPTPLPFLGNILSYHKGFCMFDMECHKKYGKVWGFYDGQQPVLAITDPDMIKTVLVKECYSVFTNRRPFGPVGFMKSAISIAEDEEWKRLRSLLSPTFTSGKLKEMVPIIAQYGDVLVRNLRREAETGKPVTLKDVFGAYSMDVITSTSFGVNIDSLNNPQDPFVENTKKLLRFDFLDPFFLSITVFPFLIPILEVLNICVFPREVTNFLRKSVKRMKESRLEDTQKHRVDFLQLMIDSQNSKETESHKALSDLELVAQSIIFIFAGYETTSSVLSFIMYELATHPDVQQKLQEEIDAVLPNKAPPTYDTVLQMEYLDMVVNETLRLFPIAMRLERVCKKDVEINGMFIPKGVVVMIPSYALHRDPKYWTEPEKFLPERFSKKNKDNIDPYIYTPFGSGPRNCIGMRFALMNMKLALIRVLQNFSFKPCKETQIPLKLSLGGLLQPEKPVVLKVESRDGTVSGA
CYP2E1, sequence (P05181 whole entry): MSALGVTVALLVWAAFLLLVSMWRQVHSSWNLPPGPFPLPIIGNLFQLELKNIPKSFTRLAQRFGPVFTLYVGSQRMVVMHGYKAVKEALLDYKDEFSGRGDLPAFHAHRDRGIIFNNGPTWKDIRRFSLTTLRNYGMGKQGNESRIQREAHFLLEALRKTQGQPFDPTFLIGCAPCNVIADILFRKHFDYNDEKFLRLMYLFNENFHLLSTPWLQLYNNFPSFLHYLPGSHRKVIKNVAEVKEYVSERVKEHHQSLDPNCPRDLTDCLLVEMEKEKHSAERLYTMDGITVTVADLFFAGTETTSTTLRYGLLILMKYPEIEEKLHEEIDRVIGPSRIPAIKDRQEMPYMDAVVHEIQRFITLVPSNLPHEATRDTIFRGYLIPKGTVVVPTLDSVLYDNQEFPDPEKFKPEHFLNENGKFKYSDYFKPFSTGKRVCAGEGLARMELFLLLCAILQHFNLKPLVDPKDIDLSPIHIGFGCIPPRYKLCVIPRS
CYP2D6, sequence (P10635 whole entry): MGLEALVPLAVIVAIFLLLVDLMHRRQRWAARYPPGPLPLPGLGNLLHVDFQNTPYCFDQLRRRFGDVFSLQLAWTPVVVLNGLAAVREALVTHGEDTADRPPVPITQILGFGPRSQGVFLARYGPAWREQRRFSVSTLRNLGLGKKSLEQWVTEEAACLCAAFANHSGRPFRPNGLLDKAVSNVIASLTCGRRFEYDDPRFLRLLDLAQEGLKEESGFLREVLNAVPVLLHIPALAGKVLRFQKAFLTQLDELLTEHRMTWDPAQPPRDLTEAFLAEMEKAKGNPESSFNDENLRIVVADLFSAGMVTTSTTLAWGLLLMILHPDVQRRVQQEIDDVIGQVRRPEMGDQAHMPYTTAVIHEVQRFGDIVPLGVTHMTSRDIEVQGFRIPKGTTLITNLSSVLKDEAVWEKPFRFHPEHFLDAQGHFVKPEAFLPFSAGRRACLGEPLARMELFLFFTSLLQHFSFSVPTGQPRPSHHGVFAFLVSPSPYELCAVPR
Voltage-gated inwardly rectifying potassium channel KCNH2, sequence (Q12809 whole entry): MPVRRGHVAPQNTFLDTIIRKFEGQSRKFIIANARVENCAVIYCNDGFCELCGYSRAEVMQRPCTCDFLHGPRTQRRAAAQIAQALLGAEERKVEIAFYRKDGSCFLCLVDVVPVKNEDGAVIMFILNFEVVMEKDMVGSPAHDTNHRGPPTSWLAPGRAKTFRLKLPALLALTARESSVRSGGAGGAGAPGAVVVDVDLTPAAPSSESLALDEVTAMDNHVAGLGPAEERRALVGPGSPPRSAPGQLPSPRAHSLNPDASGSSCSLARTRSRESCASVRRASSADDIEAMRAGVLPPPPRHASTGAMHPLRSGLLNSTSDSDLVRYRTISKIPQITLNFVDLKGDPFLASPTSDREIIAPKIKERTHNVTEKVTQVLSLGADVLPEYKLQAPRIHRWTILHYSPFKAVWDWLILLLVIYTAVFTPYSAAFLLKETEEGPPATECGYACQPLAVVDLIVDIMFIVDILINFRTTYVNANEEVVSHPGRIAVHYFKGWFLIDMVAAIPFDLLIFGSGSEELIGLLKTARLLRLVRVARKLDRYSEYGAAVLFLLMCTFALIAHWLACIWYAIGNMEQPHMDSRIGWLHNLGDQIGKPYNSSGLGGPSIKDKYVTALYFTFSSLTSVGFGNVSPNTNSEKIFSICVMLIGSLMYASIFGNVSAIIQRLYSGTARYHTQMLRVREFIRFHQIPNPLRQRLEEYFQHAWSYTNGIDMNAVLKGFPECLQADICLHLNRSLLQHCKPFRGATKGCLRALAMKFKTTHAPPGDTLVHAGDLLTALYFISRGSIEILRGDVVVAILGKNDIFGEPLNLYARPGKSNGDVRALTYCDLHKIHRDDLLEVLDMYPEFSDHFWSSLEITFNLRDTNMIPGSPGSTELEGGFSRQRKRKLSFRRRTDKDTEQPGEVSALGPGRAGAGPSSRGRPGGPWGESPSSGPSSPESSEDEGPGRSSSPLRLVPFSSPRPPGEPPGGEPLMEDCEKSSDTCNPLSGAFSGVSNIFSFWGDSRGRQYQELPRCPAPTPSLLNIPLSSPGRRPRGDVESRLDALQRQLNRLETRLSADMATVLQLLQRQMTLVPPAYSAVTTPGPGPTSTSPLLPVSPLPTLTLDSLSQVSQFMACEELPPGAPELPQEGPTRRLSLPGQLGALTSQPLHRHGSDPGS

As for `C[C@H](NC(=O)c1cnc(-c2ccc(S(C)(=O)=O)cc2)s1)c1cn(-c2cc(C(F)(F)F)ccn2)nn1`, the half-life in [1] was 162 h; in data set [4], > 2 h; in data set [11], > 2 h. Also, the remaining at 2 h, 1 µM at CYP3A4, on CYP2C9, on CYP2D6, at CYP2C19, on CYP2E1 and on CYP1A2 was 100% in each case. On CYP2A6, the remaining at 2 h, 1 µM was 100%. The CLint scaled in data set [2] and in [12] was < 12 mL/min/kg in each case. Further, the Activity entry in data set [3] and in data set [8] was “Non-toxic” in each case. In data set [5], the Stability entry was “Stable”. In data set [6], this molecule returned a Cmax of 19800 ng/mL. Besides, the fraction unbound at 6 h, 10 µM in data set [7] is 0.003. In addition, the Tmax in data set [9] is 24 h. The molecule further returned an area under the curve AUC(0-t) at 72 h in data set [10] of 1160 µg·h/mL. Moreover, the IC50 at P2X purinoceptor 7 is 25.3 nM; in data set [13], > 30000 nM.

Take `CS(=O)(=O)c1ccc(-c2nc(C(=O)NCc3cn(-c4cc(C(F)(F)F)ccn4)nn3)cs2)cc1`: the half-life in data set [1] was 4.08 h; in data set [4] it was > 2 h; in data set [11], > 2 h. Also, the CLint scaled in [2] and in [12] was < 12 mL/min/kg each time. Also, the CL/F in data set [14] was 3.33 mL/min/kg. In [6], the Cmax was determined as 4530 ng/mL. In data set [9], the Tmax worked out at 1.83 h. In data set [10], the AUC(0-t) at 72 h came out at 49.8 µg·h/mL. Further, at P2X purinoceptor 7, the IC50 came out at 70.2 nM.

As to `C[C@H](NC(=O)c1csc(-c2ccc(S(C)(=O)=O)cc2)n1)c1cn(-c2cc(C(F)(F)F)ccn2)nn1`, the figures for the half-life in [1], in data set [4] and in [11] were 7.38 h, > 2 h and > 2 h, respectively. The CLint scaled in data set [2] and in data set [12] was < 12 mL/min/kg in each case. This molecule also had an apparent clearance (CL/F) in data set [14] of 1.5 mL/min/kg. In addition, the Cmax in data set [6] is 3230 ng/mL. Besides, in [9], the time to peak (Tmax) was 7.33 h. The molecule further registered an AUC(0-t) at 72 h in data set [10] of 107 µg·h/mL. In addition, at P2X purinoceptor 7, the IC50 amounted to 98.6 nM.

Take `C[C@@H](NC(=O)c1cnc(-c2ccc(S(C)(=O)=O)cc2)s1)c1cn(-c2cc(C(F)(F)F)ccn2)nn1`: the half-life was 4.71 h in data set [1], > 2 h in data set [4] and > 2 h in [11]. The remaining at 2 h, 1 µM on CYP3A4, on CYP2C9, on CYP2D6, at CYP2C19, at CYP2E1 and at CYP1A2 was 84.2% throughout. On CYP2A6, the remaining at 2 h, 1 µM came to 84.2%. The CLint scaled in data set [2] and in data set [12] was < 12 mL/min/kg throughout. Further, the CL/F in data set [14] is 2.17 mL/min/kg. The Stability entry in [5] is on record as “Stable”. This molecule also had a Cmax in data set [6] of 6900 ng/mL. In [7], the fraction unbound at 6 h, 10 µM was 0.0213. The Tmax in data set [9] was found to be 2.33 h. This molecule registered an AUC(0-t) at 72 h in data set [10] of 86.5 µg·h/mL. Further, the 50% inhibitory concentration (IC50) at P2X purinoceptor 7 turned out to be 54.7 nM.

Take `C[C@@H](NC(=O)c1csc(-c2ccc(S(C)(=O)=O)cc2)n1)c1cn(-c2cc(C(F)(F)F)ccn2)nn1`: the half-life in [1] was 6.6 h; in data set [4], > 2 h; in [11] it was > 2 h. The CLint scaled in [2] and in data set [12] was < 12 mL/min/kg in each case. Further, the CL/F in data set [14] is 1.67 mL/min/kg. The molecule also gave a Cmax in [6] of 6610 ng/mL. The Activity result in the data set on HEK293 [15] and with HEK293 [16] was “Non-toxic” in each case. The Tmax in [9] was found to be 3 h. This molecule registered an AUC(0-t) at 72 h in data set [10] of 103 µg·h/mL. Further, the IC50 on P2X purinoceptor 7 stood at 168 nM.
